{"source": "patent US9758489B2", "about": "“Azepane derivatives and methods of treating hepatitis B infections” (Novira Therapeutics, Inc., priority 2013, dated 2017)", "key": {"[1]": {"target": "HBV C150Bo protein (mutant C150 HBV capsid protein labeled with BoDIPY-FL) (Hepatitis B virus genotype D subtype adw, UniProt P03147, C107A/C48A/C61A/R150C)", "sequence (P03147 1-150 C48A/C61A/C107A/R150C)": "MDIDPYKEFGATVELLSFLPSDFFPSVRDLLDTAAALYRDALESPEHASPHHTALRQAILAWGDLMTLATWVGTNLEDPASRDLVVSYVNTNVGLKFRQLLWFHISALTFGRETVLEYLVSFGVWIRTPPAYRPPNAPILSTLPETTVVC", "test": "HBV assembly assay (fluorescence quenching in vitro capsid assembly)", "assay_type": "biochemical", "settings": "for Activity (HBV assembly assay): at about 10 μM, 50 mM Hepes pH 7.5, 150 mM NaCl, 1 hour at room temperature; for IC50: HBV assembly assay, read-out: Activity (HBV assembly potency, IC50)"}, "[2]": {"system": "HBV replication in HepG2-2.2.15 cells", "test": "Dot-blot assay: inhibition of HBV replication in HBV-producing hepatoma cell line", "assay_type": "cell-based", "settings": "Hepatitis B virus, 144 h, six days, reduction in HBV DNA levels", "experimental": "Compounds active in the HBV assembly assay are tested for their activity and toxicity in cellular assay. In the first anti-viral assay, the ability of compounds to inhibit HBV replication in an HBV-producing hepatoma cell line using the dot-blot method is evaluated.\nBriefly, confluent monolayers of HepG2-2.2.15 cells are incubated with complete medium containing various concentrations of a test compound. Three days later, the culture medium is replaced with fresh medium containing the appropriately diluted test compound. Six days following the initial administration of the test compound, the cell culture supernatant is collected, and cell lysis is performed. The samples are applied onto Nylos membranes and DNA is immobilized to the membrane by UV cross-linking. After pre-hybridization, the HBV probe is added and the hybridization is performed overnight. The membranes are exposed to the Kodak films; antiviral activity is calculated from the reduction in HBV DNA levels (EC50). The EC50 for antiviral activity is calculated from the dose response curves of active compounds. Assay performance over time is monitored by the use of the standard positive control compounds ETV, BAY 41-4109, and HAP-1.\nIn the first anti-viral assay, the ability of compounds to inhibit HBV replication in an HBV-producing hepatoma cell line using the dot-blot method was evaluated.\nConfluent monolayers of HepG2-2.2.15 cells were incubated with complete medium containing various concentrations of a test compound. Three days later, the culture medium was replaced with fresh medium containing the appropriately diluted test compound. Six days following the initial administration of the test compound, the cell culture supernatant was collected, and cell lysis was performed. The samples were applied onto Nylos membranes and DNA was immobilized to the membrane by UV cross-linking. After pre-hybridization, the HBV probe was added and the hybridization was performed overnight. The membranes were exposed to the Kodak films; antiviral activity was calculated from the reduction in HBV DNA levels (EC50). The EC50 for antiviral activity was calculated from the dose response curves of active compounds. Assay performance over time was monitored by the use of the standard positive control compounds ETV, BAY 41-4109, and HAP-1."}}}
{"smiles": "Cc1cncc(C)c1N1CCCN(C(=O)Nc2ccc(F)c(Cl)c2)CC1", "note": "[Compound 047]", "values": [{"measurement": "Activity (HBV assembly assay)", "setting": "[1]", "result": "+ (>50% activity at about 10 μM)"}, {"measurement": "inhibition at 10 µM", "setting": "[2]", "result": "> 50", "unit": "%"}]}
{"smiles": "CCOC1CN(C(=O)Nc2ccc(F)c(Cl)c2)CCN(c2c(Cl)cncc2Cl)C1", "note": "(stereo not shown) [Compound 131]", "values": [{"measurement": "inhibition at 10 µM", "setting": "[2]", "result": "> 50", "unit": "%"}]}
{"smiles": "O=C(Nc1ccc(F)c(Cl)c1)N1CCCN(c2c(F)cncc2Cl)CC1", "note": "[Compound 045]", "values": [{"measurement": "Activity (HBV assembly assay)", "setting": "[1]", "result": "+ (>50% activity at about 10 μM)"}, {"measurement": "inhibition at 10 µM", "setting": "[2]", "result": "> 50", "unit": "%"}]}
{"smiles": "O=C(Nc1ccc(F)c(Cl)c1)N1CC2CC(C1)N(c1c(Cl)cncc1Cl)C2", "note": "(stereo not shown) [Compound 065]", "values": [{"measurement": "inhibition at 10 µM", "setting": "[2]", "result": "> 50", "unit": "%"}]}
{"smiles": "O=C(Nc1cc(F)c(F)c(F)c1)N1CCCN(c2c(Cl)cncc2Cl)CC1", "note": "[Compound 025]", "values": [{"measurement": "inhibition at 10 µM", "setting": "[2]", "result": "> 50", "unit": "%"}]}
{"smiles": "O=C(Nc1ccc(F)c(Cl)c1)N1CCCN(c2c(Cl)cncc2Cl)CC1", "note": "[Compound 040]", "values": [{"measurement": "inhibition at 10 µM", "setting": "[2]", "result": "> 50", "unit": "%"}]}
{"smiles": "O=C(Nc1ccc(F)c(F)c1)N1CCCN(c2c(Cl)cncc2Cl)CC1", "note": "[Compound 004]", "values": [{"measurement": "Activity (HBV assembly assay)", "setting": "[1]", "result": "+ (>50% activity at about 10 μM)"}]}
{"smiles": "O=C(Nc1ccc(F)c(F)c1)C1CCCN(c2c(Cl)cncc2Cl)CC1", "note": "(stereo not shown) [Compound 056]", "values": [{"measurement": "Activity (HBV assembly assay)", "setting": "[1]", "result": "+ (>50% activity at about 10 μM)"}, {"measurement": "inhibition at 10 µM", "setting": "[2]", "result": "> 50", "unit": "%"}]}
{"smiles": "COC1CN(C(=O)Nc2ccc(F)c(Cl)c2)CCN(c2c(Cl)cncc2Cl)C1", "note": "(stereo not shown) [Compound 130]", "values": [{"measurement": "inhibition at 10 µM", "setting": "[2]", "result": "> 50", "unit": "%"}]}
{"smiles": "Cc1cncc(Cl)c1N1CCCN(C(=O)Nc2ccc(F)c(Cl)c2)CC1", "note": "[Compound 044]", "values": [{"measurement": "Activity (HBV assembly assay)", "setting": "[1]", "result": "+ (>50% activity at about 10 μM)"}, {"measurement": "inhibition at 10 µM", "setting": "[2]", "result": "> 50", "unit": "%"}]}
{"smiles": "O=C(Nc1ccc(F)c(Cl)c1)N1C2CCC1CN(c1c(Cl)cncc1Cl)CC2", "note": "(stereo not shown) [Compound 121]", "values": [{"measurement": "inhibition at 10 µM", "setting": "[2]", "result": "> 50", "unit": "%"}]}
{"smiles": "O=C(Nc1ccc(F)c(Cl)c1)N1CCCN(c2c(Cl)cncc2C2CC2)CC1", "note": "[Compound 109]", "values": [{"measurement": "IC50", "setting": "[1]", "result": "< 20", "unit": "µM"}, {"measurement": "Activity (HBV assembly assay)", "setting": "[1]", "result": "+ (>50% activity at about 10 μM)"}, {"measurement": "inhibition at 10 µM", "setting": "[2]", "result": "> 50", "unit": "%"}]}
{"smiles": "O=C(Nc1cccc(Cl)c1)N1CCCN(c2c(Cl)cncc2C2CC2)CC1", "note": "[Compound 110]", "values": [{"measurement": "IC50", "setting": "[1]", "result": "< 20", "unit": "µM"}, {"measurement": "Activity (HBV assembly assay)", "setting": "[1]", "result": "+ (>50% activity at about 10 μM)"}]}
{"smiles": "O=C(Nc1ccc(F)c(Cl)c1)N1CCCN(c2c(Cl)cncc2Cc2ccccc2)CC1", "note": "[Compound 115]", "values": [{"measurement": "inhibition at 10 µM", "setting": "[2]", "result": "> 50", "unit": "%"}]}
{"smiles": "O=C(Nc1cccc(Cl)c1)N1CCCN(c2c(Cl)cncc2Cl)CC1", "note": "[Compound 010]", "values": [{"measurement": "Activity (HBV assembly assay)", "setting": "[1]", "result": "+ (>50% activity at about 10 μM)"}, {"measurement": "inhibition at 10 µM", "setting": "[2]", "result": "> 50", "unit": "%"}]}
{"smiles": "O=C(Nc1ccc(F)c(F)c1)N1C2CCC1CN(c1c(Cl)cncc1Cl)CC2", "note": "(stereo not shown) [Compound 120]", "values": [{"measurement": "Activity (HBV assembly assay)", "setting": "[1]", "result": "+ (>50% activity at about 10 μM)"}, {"measurement": "inhibition at 10 µM", "setting": "[2]", "result": "> 50", "unit": "%"}]}
{"smiles": "CCc1cncc(Cl)c1N1CCCN(C(=O)Nc2ccc(F)c(Cl)c2)CC1", "note": "[Compound 107]", "values": [{"measurement": "IC50", "setting": "[1]", "result": "< 20", "unit": "µM"}, {"measurement": "Activity (HBV assembly assay)", "setting": "[1]", "result": "+ (>50% activity at about 10 μM)"}, {"measurement": "inhibition at 10 µM", "setting": "[2]", "result": "> 50", "unit": "%"}]}
{"smiles": "O=C(Nc1cccc(F)c1)N1CCCN(c2c(Cl)cncc2Cl)CC1", "note": "[Compound 011]", "values": [{"measurement": "Activity (HBV assembly assay)", "setting": "[1]", "result": "+ (>50% activity at about 10 μM)"}, {"measurement": "inhibition at 10 µM", "setting": "[2]", "result": "> 50", "unit": "%"}]}
{"smiles": "O=C(Nc1ccc(Cl)c(F)c1)N1CCCN(c2c(Cl)cncc2Cl)CC1", "note": "[Compound 049]", "values": [{"measurement": "inhibition at 10 µM", "setting": "[2]", "result": "> 50", "unit": "%"}]}
{"smiles": "COC(=O)C1CN(C(=O)Nc2ccc(F)c(Cl)c2)CCN(c2c(Cl)cncc2Cl)C1", "note": "(stereo not shown) [Compound 098]", "values": [{"measurement": "Activity (HBV assembly assay)", "setting": "[1]", "result": "+ (>50% activity at about 10 μM)"}]}
{"smiles": "O=C(Nc1ccc(F)c(Cl)c1)N1CCN(c2c(Cl)cncc2Cl)CC(CO)C1", "note": "(stereo not shown) [Compound 099]", "values": [{"measurement": "Activity (HBV assembly assay)", "setting": "[1]", "result": "+ (>50% activity at about 10 μM)"}, {"measurement": "inhibition at 10 µM", "setting": "[2]", "result": "> 50", "unit": "%"}]}
{"smiles": "O=C(Nc1ccc(F)c(Cl)c1)C1CCCN(c2c(Cl)cncc2Cl)CC1", "note": "(stereo not shown) [Compound 055]", "values": [{"measurement": "Activity (HBV assembly assay)", "setting": "[1]", "result": "+ (>50% activity at about 10 μM)"}]}
{"smiles": "CCc1cncc(Cl)c1N1CCCN(C(=O)Nc2cccc(Cl)c2)CC1", "note": "[Compound 108]", "values": [{"measurement": "IC50", "setting": "[1]", "result": "< 20", "unit": "µM"}, {"measurement": "Activity (HBV assembly assay)", "setting": "[1]", "result": "+ (>50% activity at about 10 μM)"}]}
{"smiles": "O=C(Nc1ccc(F)c(Cl)c1)N1CCCN(c2c(Cl)cncc2Cl)CC1Cc1ccccc1", "note": "(stereo not shown) [Compound 091]", "values": [{"measurement": "IC50", "setting": "[1]", "result": "< 20", "unit": "µM"}, {"measurement": "Activity (HBV assembly assay)", "setting": "[1]", "result": "+ (>50% activity at about 10 μM)"}]}
{"smiles": "O=C(Nc1ccc(F)c(Cl)c1)N1CCCN(c2c(Cl)cncc2Cl)CC1", "note": "[Compound 005]", "values": [{"measurement": "Activity (HBV assembly assay)", "setting": "[1]", "result": "+ (>50% activity at about 10 μM)"}]}
{"smiles": "O=C(Nc1ccc(F)c(Cl)c1)N1CC2CC1CCN2c1c(Cl)cncc1Cl", "note": "(stereo not shown) [Compound 077]", "values": [{"measurement": "inhibition at 10 µM", "setting": "[2]", "result": "> 50", "unit": "%"}]}
{"smiles": "O=C(Nc1ccc(F)c(Cl)c1)N1CCCN(c2c(Cl)cncc2CO)CC1", "note": "[Compound 126]", "values": [{"measurement": "inhibition at 10 µM", "setting": "[2]", "result": "> 50", "unit": "%"}]}
{"smiles": "CC1CN(c2c(Cl)cncc2Cl)CCCN1C(=O)Nc1ccc(F)c(Cl)c1", "note": "(stereo not shown) [Compound 087]", "values": [{"measurement": "inhibition at 10 µM", "setting": "[2]", "result": "> 50", "unit": "%"}]}
{"smiles": "O=C(Nc1ccc(F)c(Cl)c1)N1CCCN(c2ccnc(Cl)c2Cl)CC1", "note": "[Compound 041]", "values": [{"measurement": "inhibition at 10 µM", "setting": "[2]", "result": "> 50", "unit": "%"}]}
{"smiles": "O=C(Nc1ccc(F)c(Cl)c1)N1CCN(c2c(Cl)cncc2Cl)CC(O)C1", "note": "(stereo not shown) [Compound 100]", "values": [{"measurement": "Activity (HBV assembly assay)", "setting": "[1]", "result": "+ (>50% activity at about 10 μM)"}, {"measurement": "inhibition at 10 µM", "setting": "[2]", "result": "> 50", "unit": "%"}]}
{"smiles": "COCCc1cncc(Cl)c1N1CCCN(C(=O)Nc2ccc(F)c(Cl)c2)CC1", "note": "[Compound 129]", "values": [{"measurement": "inhibition at 10 µM", "setting": "[2]", "result": "> 50", "unit": "%"}]}
{"smiles": "CC1CCN(c2c(Cl)cncc2Cl)CCN1C(=O)Nc1ccc(F)c(Cl)c1", "note": "(stereo not shown) [Compound 092]", "values": [{"measurement": "IC50", "setting": "[1]", "result": "< 20", "unit": "µM"}, {"measurement": "Activity (HBV assembly assay)", "setting": "[1]", "result": "+ (>50% activity at about 10 μM)"}, {"measurement": "inhibition at 10 µM", "setting": "[2]", "result": "> 50", "unit": "%"}]}
{"smiles": "CC1CN(C(=O)Nc2ccc(F)c(Cl)c2)CCN(c2c(Cl)cncc2Cl)C1", "note": "(stereo not shown) [Compound 097]", "values": [{"measurement": "Activity (HBV assembly assay)", "setting": "[1]", "result": "+ (>50% activity at about 10 μM)"}, {"measurement": "inhibition at 10 µM", "setting": "[2]", "result": "> 50", "unit": "%"}]}
